In assay [1] the test system is DIGSA. Kind of assay: Pre-emergence herbicidal action against DIGSA. It counts as in vivo, Digitaria sanguinalis. The conditions noted are these: Digitaria sanguinalis, 504 h; for pest or weed control at 80 g/ha: dosage 80 g/ha; for pest or weed control at 320 g/ha: dosage 320 g/ha; for pest or weed control at 20 g/ha: dosage 20 g/ha. In outline:
(§1)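 Pre-emergence soil-surface spray of formulated compound (WP or EC; 600 to 800 l/ha; 0.2% wetting agent) over seeds sown in sandy loam. After 3 weeks under greenhouse conditions, damage is estimated visually in percent against untreated plants.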

Assay [2] concerns DIGSA. Put plainly: Post-emergence herbicidal action against DIGSA. The conditions noted are these: Digitaria sanguinalis, 504 h. It counts as in vivo, Digitaria sanguinalis. In outline:
(§2)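 Greenhouse plants in sandy loam were sprayed at the one-leaf stage, 2 to 3 weeks after sowing, with WP or EC formulations as aqueous suspension or emulsion (600 to 800 l/ha water, 0.2% wetting agent). Visual damage was scored about 3 weeks later versus untreated controls, 0% = like control, 100% = dead.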

The next assay concerns SETVI. Put plainly: Post-emergence herbicidal action against SETVI. The format is in vivo, Setaria viridis. The conditions noted are these: Setaria viridis, 504 h; for pest or weed control at 80 g/ha: dosage 80 g/ha; for pest or weed control at 5 g/ha: dosage 5 g/ha; for pest or weed control at 20 g/ha: dosage 20 g/ha. In a few lines: as §2
For another assay, the system named is ABUTH. Kind of assay: Post-emergence herbicidal action against ABUTH. The format is in vivo, Abutilon theophrasti. Conditions: Abutilon theophrasti, 504 h, visual assessment about 3 weeks after treatment vs untreated controls; for pest or weed control at 20 g/ha: dosage 20 g/ha; for pest or weed control at 80 g/ha: dosage 80 g/ha; for pest or weed control at 5 g/ha: dosage 5 g/ha. In outline: as §2

Another assay has as its system ALOMY. Kind of assay: Post-emergence herbicidal action against ALOMY. The format is in vivo, Alopecurus myosuroides. Conditions: Alopecurus myosuroides, 504 h, visual assessment about 3 weeks after treatment vs untreated controls; for pest or weed control at 20 g/ha: dosage 20 g/ha; for pest or weed control at 80 g/ha: dosage 80 g/ha; for pest or weed control at 5 g/ha: dosage 5 g/ha. In a few lines: as §2

A further assay concerns harmful plants. Kind of assay: Comparative experiments: herbicidal post-emergence action versus compounds known from D1 (WO 2012/028579 A1). It counts as in vivo. Details: key to Herbicidal action against ALOMY / Herbicidal action against AVEFA / Herbicidal action against LOLRI / Herbicidal action against MATIN / Herbicidal action against HORMU / Herbicidal action against ECHCG / Herbicidal action against SETVI / Herbicidal action against ABUTH / Herbicidal action against STEME / Herbicidal action against VIOTR / Herbicidal action against AMARE: % herbicidal action: 100 = plants died, 0 = like untreated control. Conditions: 20 g a.i./ha. The method, then: Seeds of monocotyledonous and dicotyledonous weed and crop plants are laid out in sandy loam soil in wood-fiber pots, covered with soil and cultivated in a greenhouse under good growth conditions. 2 to 3 weeks after sowing, the test plants are treated at the one-leaf stage. The compounds of the invention, formulated in the form of wettable powders (WP) or as emulsion concentrates (EC), are then sprayed onto the green parts of the plants in the form of an aqueous suspension or emulsion at a water application rate equivalent to 600 to 800 l/ha, with addition of 0.2% wetting agent. After the test plants have been left to stand in the greenhouse under optimal growth conditions for about 3 weeks, the action of the preparations is assessed visually in comparison to untreated controls (herbicidal action in percent (%): 100% activity=the plants have died, 0% activity=like control plants). […] The tables below illustrate, in an illustrative manner, the post-emergence herbicidal action of the compounds of the invention, the herbicidal activity being stated in percent. In the experiments that follow, herbicidal action of numerous inventive compounds and the structurally closest compounds known from D1 (WO 2012/028579 A1) were compared under the above-specified conditions by the pre-emergence and post-emergence method. The example numbers given in the tables relate to the compounds disclosed in the respective documents.

The test system of a further assay is POLCO. Put plainly: Pre-emergence herbicidal action against POLCO. The format is in vivo, Polygonum convolvulus. Conditions: Fallopia convolvulus, 504 h; for pest or weed control at 320 g/ha: dosage 320 g/ha; for pest or weed control at 80 g/ha: dosage 80 g/ha; for pest or weed control at 20 g/ha: dosage 20 g/ha. In outline:
as §1

The test system of the next assay is PHBPU. Kind of assay: Pre-emergence herbicidal action against PHBPU. It counts as in vivo, Pharbitis purpurea. Conditions: Ipomoea purpurea, 504 h; for pest or weed control at 80 g/ha: dosage 80 g/ha. In a few lines: as §1

A word on the pest or weed control: it is how far the test organism was held down.

As for `CNC(=O)c1c(C(F)(F)F)ccc(C(=O)Nc2nnnn2C)c1SC` [Example 1-81], the pest or weed control at 80 g/ha is 100% in the assay on DIGSA [1]; 90% with DIGSA [2]; 90% with SETVI; 90% in the assay with ABUTH; 90% in the assay with ALOMY. This molecule also registered a pest or weed control at 320 g/ha in the assay on DIGSA [1] of 100%. The pest or weed control at 20 g/ha in the assay on DIGSA [2], in the assay with ABUTH and in the assay with ALOMY was 80% each time.

As to `CNC(=O)c1c(C(F)F)ccc(C(=O)Nc2nnnn2C)c1Cl` [Example 1-147], in the assay on DIGSA [1], the pest or weed control at 80 g/ha was determined as 100% and the pest or weed control at 320 g/ha was determined as 100%. In the assay on DIGSA [2], this molecule yielded a pest or weed control at 20 g/ha of 90% and a pest or weed control at 80 g/ha of 90%. In the assay with ABUTH, this molecule had a pest or weed control at 20 g/ha of 90% and a pest or weed control at 80 g/ha of 90%. Besides, in the assay with ALOMY, the pest or weed control at 20 g/ha was 80% and the pest or weed control at 80 g/ha came out at 90%. Further, in the assay with harmful plants, the “Herbicidal action against ALOMY” value was determined as 80, the “Herbicidal action against AVEFA” value turned out to be 90, the “Herbicidal action against MATIN” value was determined as 100 and the “Herbicidal action against PHBPU” value is reported as 80. The “Herbicidal action against POLCO” value with harmful plants (POLCO) stood at 90. Moreover, the “Herbicidal action against VIOTR” value with harmful plants (VIOTR) was found to be 70. In the assay with POLCO, this molecule registered a pest or weed control at 320 g/ha of 90%.

`CCNC(=O)c1c(C(F)F)ccc(C(=O)Nc2nnnn2C)c1Cl` [Example 1-148]: the pest or weed control at 80 g/ha in the assay with DIGSA [1] stood at 100%; with DIGSA [2], 90%; in the assay with ABUTH, 90%; in the assay with ALOMY, 90%. In addition, the figures for the pest or weed control at 320 g/ha in the assay with DIGSA [1] and in the assay on POLCO were 100% and 80%, respectively. In addition, the pest or weed control at 20 g/ha in the assay on DIGSA [2] turned out to be 90%; in the assay on ABUTH, 90%; in the assay on ALOMY it was 80%.

For `CCc1c(C(=O)Nc2nnnn2C)ccc(C(F)(F)F)c1C(=O)NC1CC1` [Example 1-273], the pest or weed control at 20 g/ha with DIGSA [1] amounted to 100%; in the assay on DIGSA [2], 90%; with SETVI it was 100%; in the assay with ABUTH, 90%; in the assay with ALOMY it was 100%. In addition, the figures for the pest or weed control at 80 g/ha in the assay with DIGSA [1], with PHBPU and in the assay with POLCO were 100%, 100% and 90%, respectively. Besides, the pest or weed control at 5 g/ha with DIGSA [2] amounted to 90%; in the assay on SETVI, 80%; in the assay on ABUTH it was 90%; in the assay on ALOMY, 80%.

On to `CCn1nnnc1NC(=O)c1ccc(C(F)(F)F)c(C(=O)NC2CC2)c1C` [Example 2-27], for which the pest or weed control at 20 g/ha in the assay on DIGSA [1] is 100%; with DIGSA [2], 100%; in the assay on SETVI, 100%; with ABUTH it was 100%; with ALOMY it was 90%; with PHBPU (dosage 20 g/ha) it was 80%. Besides, the pest or weed control at 20 g/ha in the assay on POLCO amounted to 80%. Further, the values for the pest or weed control at 80 g/ha in the assay with DIGSA [1], in the assay on PHBPU and with POLCO were 100%, 90% and 100%, respectively. Also, the pest or weed control at 5 g/ha amounted to 100% in the assay on DIGSA [2], 80% with SETVI, 100% in the assay on ABUTH and 80% with ALOMY.

For the molecule `CCn1nnnc1NC(=O)c1ccc(C(F)(F)F)c(C(=O)NC)c1SC` [Example 2-81], the pest or weed control at 80 g/ha is 100% in the assay with DIGSA [1]; 90% in the assay on DIGSA [2]; 90% with SETVI; 90% in the assay with ABUTH; 90% in the assay on ALOMY. Moreover, the pest or weed control at 320 g/ha in the assay on DIGSA [1] and with POLCO was 100% throughout. The pest or weed control at 20 g/ha turned out to be 90% in the assay on DIGSA [2], 90% in the assay with SETVI, 90% with ABUTH and 80% in the assay on ALOMY.

Consider `CCNC(=O)c1c(C(F)(F)F)ccc(C(=O)Nc2nnnn2CC)c1SC` [Example 2-82], for which the pest or weed control at 80 g/ha is 100% in the assay on DIGSA [1], 90% with DIGSA [2], 90% in the assay on ABUTH and 90% in the assay on ALOMY. Besides, the pest or weed control at 320 g/ha came out at 100% in the assay on DIGSA [1] and 90% with POLCO. In addition, the pest or weed control at 20 g/ha with DIGSA [2] and in the assay on ABUTH was 90% in each case.

In the assay on DIGSA [1], `CCn1nnnc1NC(=O)c1ccc(C(F)F)c(C(=O)NC)c1Cl` [Example 2-147] displayed a pest or weed control at 80 g/ha of 100% and a pest or weed control at 320 g/ha of 100%. In the assay on DIGSA [2], this molecule returned a pest or weed control at 20 g/ha of 90% and a pest or weed control at 80 g/ha of 90%. In the assay on ABUTH, this molecule displayed a pest or weed control at 20 g/ha of 90% and a pest or weed control at 80 g/ha of 90%. For the same molecule, in the assay with ALOMY, the pest or weed control at 20 g/ha turned out to be 80% and the pest or weed control at 80 g/ha was 90%. In the assay on harmful plants, the “Herbicidal action against ALOMY” value worked out at 80, the “Herbicidal action against AVEFA” value is recorded as 90, the “Herbicidal action against MATIN” value is recorded as 100 and the “Herbicidal action against PHBPU” value is 70. Further, in the assay with harmful plants (HORMU), the “Herbicidal action against HORMU” value is 80. Further, in the assay with harmful plants (LOLRI), the “Herbicidal action against LOLRI” value stood at 70. This molecule registered a pest or weed control at 320 g/ha in the assay with POLCO of 80%.

With `CCNC(=O)c1c(C(F)F)ccc(C(=O)Nc2nnnn2CC)c1Cl` [Example 2-148], the pest or weed control at 80 g/ha with DIGSA [1] was found to be 100%; with DIGSA [2], 90%; with SETVI, 80%; with ABUTH, 90%; with ALOMY, 90%. For the same molecule, the pest or weed control at 320 g/ha with DIGSA [1] and in the assay on POLCO was 100% throughout. Besides, the pest or weed control at 20 g/ha is 90% in the assay on DIGSA [2], 90% in the assay on ABUTH and 80% in the assay with ALOMY.

As for `CCn1nnnc1NC(=O)c1ccc(Cl)c(C(=O)NC2CC2)c1Cl` [Example 2-173], the pest or weed control at 20 g/ha with DIGSA [1] turned out to be 100%; with DIGSA [2], 80%; with SETVI it was 100%; with ABUTH, 100%; with ALOMY it was 100%; in the assay with POLCO, 90%. For the same molecule, the pest or weed control at 80 g/ha in the assay on DIGSA [1] was found to be 100%; with PHBPU, 90%; in the assay on POLCO, 100%. Further, the pest or weed control at 5 g/ha was 100% with SETVI and 90% with ABUTH.

Take `CCn1nnnc1NC(=O)c1ccc(C(F)(F)F)c(C(=O)NC(C)=O)c1Cl` [Example 2-337]: the pest or weed control at 20 g/ha worked out at 90% with DIGSA [1] and 100% with ABUTH. The pest or weed control at 80 g/ha was 100% with DIGSA [1], 90% in the assay on DIGSA [2], 100% in the assay with ABUTH and 90% with ALOMY. Also, the pest or weed control at 320 g/ha in the assay on DIGSA [1] was determined as 100%; with PHBPU (dosage 320 g/ha) it was 90%; in the assay with POLCO, 80%.

Values taken from patent US12655116B2, “Substituted isophthalic acid diamides” (Bayer Aktiengesellschaft, priority 2020, dated 2026).
